# Source: patent publication US12491207B2, “Article of manufacture comprising local anesthetic, buffer, and glycosaminoglycan in syringe with improved stability” (Vaneltix Pharma, Inc., priority 2017, dated 2025)
# Counter-ions that a name gives are not always drawn.
# Assay: Loss of lidocaine HCl on sterilization and storage in glass or plastic containers
# Type: physicochemical
# Protocol: This composition was packaged in 20-mL cyclic olefin polymer (COP) and polypropylene (PP) syringes; the polypropylene was not non-nucleated. Storage conditions were, as indicated below, either 25° C./60% relative humidity (RH) or 40° C./75% RH.
# Testing points were as follows: at the initiation of the stability study, after 1 month, 2 months, 3 months, 6 months, and 12 months.
# Additionally, the syringe parts (the plunger and the syringe body) were analyzed for leachables.
compound,measurement,setting,value
CCN(CC)CC(=O)Nc1c(C)cccc1C [lidocaine hydrochloride],loss of lidocaine hydrochloride after sterilization (FIG. 9),"glass vials, 80 mM phosphate buffer",small loss
same,loss of lidocaine hydrochloride after sterilization (FIG. 9),"glass vials, different phosphate buffer molarities except 80 mM",no loss
same,loss of lidocaine hydrochloride after sterilization (FIG. 9),"plastic syringes, increasing with phosphate buffer molarity",significant loss
